Measurements from patent publication US11912723B2, “KRAS modulators and uses thereof” (Quanta Therapeutics, Inc., priority 2022, dated 2024).

Assays:
[1] = molecular target: T1, KRAS G12D/RAF1 (Homo sapiens, UniProt P01116, G12D); test: Protein-protein interaction (PPI) HTRF assay KRAS G12D/RAF1; assay type: binding; settings: KRAS G12D/RAF1, GppNHp-loaded KRAS; 30 minutes pre-incubation
T1 construct: KRAS (1-169) proteins were expressed in E. coli at 18° C; His6-MBP (N, cleaved yes); made in house; host or cells: E. coli
T1 sequence (P01116 1-169 isoform P01116-2 G12D): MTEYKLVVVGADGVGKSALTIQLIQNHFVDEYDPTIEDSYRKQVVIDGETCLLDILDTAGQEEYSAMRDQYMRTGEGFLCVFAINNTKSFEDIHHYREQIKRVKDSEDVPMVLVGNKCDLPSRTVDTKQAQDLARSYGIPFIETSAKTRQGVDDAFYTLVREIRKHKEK
Procedure: Biotinylated KRAS wt and KRAS G12DNV proteins were expressed and purified in conditions similar to those previously reported (Tran, et al., 2021) (Zhang, et al., 2020). Briefly, KRAS (1-169) proteins were expressed in E. coli at 18° C. with an upstream TEV cleavage site (ENLFYQS) followed an Avi tag sequence ([…]). KIRAS expression constructs contained both a His6 and maltose-binding protein (MBP) tags at the N-terminus for Ni-NTA column purification prior to overnight TEV cleavage and MBP column purification. The avi-tagged NRAS expression construct contained both a His6 tag and SUMO cleavage sige at the N-terminus for Ni-NTA column purification followed by His-ULP1 digestion overnight. All avi-tagged RAS proteins were dialyzed into buffer containing ATP, biotin, and BirA followed by purification over a second Ni-NTA column and then run over a size exclusion HiLoad™ 26/600 Superdex™ column in 20 mM HEPES, pH 7.5, 300 mM NaCl, 5 mM MgCl2, and 1 mM TCEP. Fractions containing the protein of interest were pooled, concentrated, and confirmed by intact mass spectrometry. To prepare ‘GTP’ loaded KRAS and NRAS, biotinylated KRAS or NRAS was nucleotide exchanged from GDP-bound protein to GppNHp-bound (Jena Biosciences, NU-401-50) protein in the presence of alkaline phosphatase and excess GppNHp as previously described and the resulting nucleotide content was confirmed by HPLC reverse phase analytical chromatography (Donohue, et al., 2019) (Tran, et al., 2021).
His-tagged RAF1 (52-131) was similarly expressed in E. coli at 18° C. overnight with an upstream TEV cleavage site. His-tagged RAF1 expression construct contained both a His6 and MBP tags at the N-terminus for Ni-NTA column purification followed by MBP-tagged TEV digestion overnight. RAF1 protein samples were further purified over a MBP column followed by a Ni-NTA column and a second MBP column. The fractions containing the protein of interest were pooled, concentrated, and further purified over a HiLoad™ 16/600 Superdex™ 75 pg size exclusion column into 20 mM HEPES, pH8.0, 200 mM NaCl, 5 mM TCEP.
When RAS proteins are in the active GTP-bound conformation, they bind the effector protein RAF1 at the N-terminus Ras-binding domain (RBD, residues 52-131) (Tran, et al., 2021). Homogenous time resolved fluorescence (HTRF) was used to monitor the interaction between wt or mutant KRAS and RAF1 or wt NRAS and RAFT. Compounds were assayed in the presence of KRAS G12D/V and RAF1 versus wt KRAS to assess activity against mutant and w.t. KRAS. Similarly, compounds were then assayed in the presence of w.t. NRAS and RAF1 to assess RAS isoform selectivity. In all assay formats, His-tagged RAF1 protein was incubated with the HTRF donor, anti-6His Tb Cryptate gold (Cisbio 61DB10RDF), and biotinylated RAS proteins were incubated with the HTRF acceptor, streptavidin-d2 (CisBio 610SADLA). The intensity of the fluorescence signal emitted is proportional to binding between the two proteins. The donor solution was prepared by mixing 16 nM His-tagged RAF1 in protein dilution buffer with 1:100 anti-6His Tb cryptate in PPI-Terbium detection buffer. 16 nM biotinylated RAS protein was diluted into protein dilution buffer (50 mM Tris-HCl pH 7.5, 150 mM NaCl, 0.1 mM MgCl2, 1 mM TCEP, 0.005% Tween20) and mixed with 1:2000 Streptavidin-d2 diluted in PPI-Terbium detection buffer (CisBio 61DB10RDF). 50× compound in DMSO was mixed with 16 nM KRAS-acceptor solution and incubated for 30 minutes at room temperature. After compound pre-incubation with KRAS, the RAF1 donor solution was added to the KRAS-acceptor solution and incubated for 1 hour at room temperature. The fluorescence signal emitted was monitored at 665 nm and 615 nm using an Envision multimode plate reader. The HTRF ratio (665/615) was calculated and normalized to 0% inhibition in the absence of compound and 100% inhibition in the presence of untagged RAF1 protein. […]

[2] = molecular target: T2, GST-tagged KRAS G12D (2-169) (Homo sapiens, UniProt P01116, G12D); test: Nucleotide exchange assay (NEA), HTRF of SOS-mediated GTP-DY-647P1 binding; assay type: biochemical; settings: 5 nM GST-KRAS G12D, 20 nM SOScat, 150 nM GTP; compound 1 h at RT
T2 construct: GST-tagged KRAS^G12D (2-169, Reaction Biology, MSC-11-539); purchased Reaction Biology MSC-11-539 (KRAS G12D); MSC-11-502 (SOS1cat)
T2 sequence (P01116 2-169 isoform P01116-2 G12D): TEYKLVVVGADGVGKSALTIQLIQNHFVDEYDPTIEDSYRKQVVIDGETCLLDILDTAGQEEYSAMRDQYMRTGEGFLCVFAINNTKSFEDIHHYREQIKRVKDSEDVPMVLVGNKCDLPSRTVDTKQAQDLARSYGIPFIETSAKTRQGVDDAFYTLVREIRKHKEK
In short: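 After 1 h RT preincubation of compound with KRAS, SOS1cat (20 nM final) and fluorescent GTP analog (150 nM) were added to 5 nM KRAS; HTRF (anti-GST Tb donor) followed at RT for up to 90 min. % inhibition relative to DMSO and no-SOS1 blank, 4-parameter curve fit.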

Row | SMILES | IC50 [1] [µM] | IC50 [2] [µM]
1 | O=C1NC(=O)[C@@H]2CN(c3nc(OC[C@@]45CCCN4C[C@H](F)C5)nc4c3CO[C@@]3(CCc5c(Cl)cccc53)C4)C[C@H]12 [Compound 33, (3aR,6aS)-5-[(7S)-4′-chloro-2-[[(2R,8S)-2-fluoro-1,2,3,5,6,7-hexahydropyrrolizin-8-yl]methoxy]spiro[5,8-dihydropyrano[4,3-d]pyrimidine-7,1′-indane]-4-yl]-3a,4,6,6a-tetrahydropyrrolo[3,4-c]pyrrole-1,3-dione] | 10 to 100 | 0.1 to 1
2 | CCN1Cc2c(nc(OC[C@@]34CCCN3C[C@H](F)C4)nc2N2CCCn3nc(C(=O)N(C)C)c(Cl)c3C2)C[C@]12CCCc1ccccc12 [Compound 100, 3-chloro-5-[(7S)-6-ethyl-2-[[(2R,8S)-2-fluoro-1,2,3,5,6,7-hexahydropyrrolizin-8-yl]methoxy]spiro[5,8-dihydropyrido[4,3-d]pyrimidine-7,1′-tetralin]-4-yl]-N,N-dimethyl-4,6,7,8-tetrahydropyrazolo[1,5-a][1,4]diazepine-2-carboxamide] | > 100 | 0.01 to 0.1
3 | C[C@@H]1Cn2cncc2CN1c1nc(OC[C@@]23CCCN2C[C@H](F)C3)nc2c1CN(C)[C@@]1(CCCc3ccccc31)C2 [Compound 94, (7S)-2-[[(2R,8S)-2-fluoro-1,2,3,5,6,7-hexahydropyrrolizin-8-yl]methoxy]-6-methyl-4-[(6R)-6-methyl-6,8-dihydro-5H-imidazo[1,5-a]pyrazin-7-yl]spiro[5,8-dihydropyrido[4,3-d]pyrimidine-7,1′-tetralin]] | > 100 | 1 to 20
4 | O=C1NC(=O)[C@]2(CCCN(c3nc(OC[C@@]45CCCN4C[C@H](F)C5)nc4c3COC3(CCCc5c(Cl)cc(O)cc53)C4)C2)N1 (single isomer, unassigned) [Compound 51B, (5R)-9-[(7*)-5′-chloro-2-[[(2R,8S)-2-fluoro-1,2,3,5,6,7-hexahydropyrrolizin-8-yl]methoxy]-7′-hydroxy-spiro[5,8-dihydropyrano[4,3-d]pyrimidine-7,1′-tetralin]-4-yl]-1,3,9-triazaspiro[4.5]decane-2,4-dione] | 10 to 100 | 0.01 to 0.1
5 | Nc1ccc2c(c1)C1(CCC2)Cc2nc(OC[C@@]34CCCN3C[C@H](F)C4)nc(N3CCCC(O)CC3)c2CO1 (stereo partly drawn) [Compound 13, 1-[7′-amino-2-[[(2R,8S)-2-fluoro-1,2,3,5,6,7-hexahydropyrrolizin-8-yl]methoxy]spiro[5,8-dihydropyrano[4,3-d]pyrimidine-7,1′-tetralin]-4-yl]azepan-4-ol] | 10 to 100 | 1 to 20
6 | CS(=O)(=O)c1cc2n(n1)CCCN(c1nc(OC[C@@]34CCCN3C[C@H](F)C4)nc3c1CO[C@@]1(CCc4c(Cl)cccc41)C3)C2 [Compound 62, (7S)-4′-chloro-2-[[(2R,8S)-2-fluoro-1,2,3,5,6,7-hexahydropyrrolizin-8-yl]methoxy]-4-(2-methylsulfonyl-4,6,7,8-tetrahydropyrazolo[1,5-a][1,4]diazepin-5-yl)spiro[5,8-dihydropyrano[4,3-d]pyrimidine-7,1′-indane]] | > 100 | 0.01 to 0.1
7 | CN(C)C(=O)c1nn2c(c1Cl)CN(c1nc(OCC3(CN4CCOCC4)CC3)nc3c1CN(C)[C@@]1(CCCc4ccccc41)C3)CCC2 [Compound 95, 3-chloro-N,N-dimethyl-5-[(7S)-6-methyl-2-[[1-(morpholinomethyl)cyclopropyl]methoxy]spiro[5,8-dihydropyrido[4,3-d]pyrimidine-7,1′-tetralin]-4-yl]-4,6,7,8-tetrahydropyrazolo[1,5-a][1,4]diazepine-2-carboxamide] | > 100 | < 0.01
8 | CN1Cc2c(nc(OC[C@@]34CCCN3C[C@H](F)C4)nc2N2CCCn3nc(-c4nc5c(F)cccc5n4C)cc3C2)C[C@]12CCCc1ccccc12 [Compound 83, (7S)-2-[[(2R,8S)-2-fluoro-1,2,3,5,6,7-hexahydropyrrolizin-8-yl]methoxy]-4-[2-(4-fluoro-1-methyl-benzimidazol-2-yl)-4,6,7,8-tetrahydropyrazolo[1,5-a][1,4]diazepin-5-yl]-6-methyl-spiro[5,8-dihydropyrido[4,3-d]pyrimidine-7,1′-tetralin]] | > 100 | 0.01 to 0.1
9 | CN1Cc2c(nc(OC[C@@]34CCCN3C[C@H](F)C4)nc2N2CCCn3nc(CC#N)c(Cl)c3C2)C[C@]12CCCc1ccccc12 [Compound 98, 2-[3-chloro-5-[(7S)-2-[[(2R,8S)-2-fluoro-1,2,3,5,6,7-hexahydropyrrolizin-8-yl]methoxy]-6-methyl-spiro[5,8-dihydropyrido[4,3-d]pyrimidine-7,1′-tetralin]-4-yl]-4,6,7,8-tetrahydropyrazolo[1,5-a][1,4]diazepin-2-yl]acetonitrile] | > 100 | < 0.01
10 | CN(C)C(=O)c1cc2n(n1)CCCN(c1nc(OC[C@@]34CCCN3C[C@H](F)C4)nc3c1COC1(CCc4ccc(O)cc41)C3)C2 (some centres unmarked) [Compound 32] | > 100 | 0.01 to 0.1
11 | CN1Cc2c(nc(OC[C@@]34CCCN3C[C@H](F)C4)nc2N2CCCn3nc(-c4ccccn4)c(Cl)c3C2)C[C@]12CCCc1ccccc12 [Compound 93, (7S)-4-[3-chloro-2-(2-pyridyl)-4,6,7,8-tetrahydropyrazolo[1,5-a][1,4]diazepin-5-yl]-2-[[(2R,8S)-2-fluoro-1,2,3,5,6,7-hexahydropyrrolizin-8-yl]methoxy]-6-methyl-spiro[5,8-dihydropyrido[4,3-d]pyrimidine-7,1′-tetralin]] | 10 to 100 | < 0.01
12 | N=S1(=O)CCN(C(=O)c2nn3c(c2Cl)CN(c2nc(OC[C@@]45CCCN4C[C@H](F)C5)nc4c2CO[C@@]2(CCc5c(Cl)cccc52)C4)CCC3)CC1 [Compound 52, [3-chloro-5-[(7S)-4′-chloro-2-[[(2R,8S)-2-fluoro-1,2,3,5,6,7-hexahydropyrrolizin-8-yl]methoxy]spiro[5,8-dihydropyrano[4,3-d]pyrimidine-7,1′-indane]-4-yl]-4,6,7,8-tetrahydropyrazolo[1,5-a][1,4]diazepin-2-yl]-(1-imino-1-oxo-1,4-thiazinan-4-yl)methanone] | 10 to 100 | < 0.01
13 | COc1cccc(-c2cc3n(n2)CCCN(c2nc(OC[C@@]45CCCN4C[C@H](F)C5)nc4c2CN(C)[C@@]2(CCCc5ccccc52)C4)C3)n1 [Compound 89, (7S)-2-[[(2R,8S)-2-fluoro-1,2,3,5,6,7-hexahydropyrrolizin-8-yl]methoxy]-4-[2-(6-methoxy-2-pyridyl)-4,6,7,8-tetrahydropyrazolo[1,5-a][1,4]diazepin-5-yl]-6-methyl-spiro[5,8-dihydropyrido[4,3-d]pyrimidine-7,1′-tetralin]] | > 100 | 0.1 to 1
